Measurements published in the supplement of paper PMC10307832.

Assays:
Test in all cases: relative viability (nuclei count vs DMSO), 5 days (fraction); higher = more cells survive
LCLC-97TM1 = system: LCLC-97TM1
Procedure, shortened: (§1)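 Cells from lung cancer lines were seeded into 1536-well plates and, one day later, dosed by pin tool. Treatments were either a single drug or a fixed dose of an anchor drug with five library-drug doses (not always all listed) in √10 steps. After 5 days, nuclei were stained in a one-step fixation (final 0.05% Triton X-100, 1% formaldehyde, 1 ug/ml Hoechst) and counted on 4× images, and relative viability is the treated-to-vehicle nuclei ratio, as the median of duplicate plates.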

NCI-H596 = system: NCI-H596
Procedure, shortened: as §1

LXF-289 = system: LXF-289
Procedure, shortened: as §1

UMC-11 = system: UMC-11
Procedure, shortened: as §1

HCC-15 = system: HCC-15
Procedure, shortened: as §1

NCI-H2342 = system: NCI-H2342
Procedure, shortened: as §1

NCI-H322M = system: NCI-H322M
Procedure, shortened: as §1

LU99A = system: LU99A
Procedure, shortened: as §1

NCI-H650 = system: NCI-H650
Procedure, shortened: as §1

NCI-H1651 = system: NCI-H1651
Procedure, shortened: as §1

HCC-78 = system: HCC-78
Procedure, shortened: as §1

NCI-H1944 = system: NCI-H1944
Procedure, shortened: as §1

LC-2-ad = system: LC-2-ad
Procedure, shortened: as §1

ChaGo-K-1 = system: ChaGo-K-1
Procedure, shortened: as §1

SK-MES-1 = system: SK-MES-1
Procedure, shortened: as §1

PC-3 [JPC-3] = system: PC-3 [JPC-3]
Procedure, shortened: as §1

NCI-H1666 = system: NCI-H1666
Procedure, shortened: as §1

LK-2 = system: LK-2
Procedure, shortened: as §1

NCI-H838 = system: NCI-H838
Procedure, shortened: as §1

NCI-H358 = system: NCI-H358
Procedure, shortened: as §1

NCI-H2087 = system: NCI-H2087
Procedure, shortened: as §1

NCI-H661 = system: NCI-H661
Procedure, shortened: as §1

BEN = system: BEN
Procedure, shortened: as §1

SMILES: NC(=O)Nc1cc(-c2cccc(F)c2)sc1C(=O)N[C@H]1CCCNC1 [AZD7762] + COc1cccc2cc(-c3nc([C@H]4CC[C@H](C(=O)O)CC4)n4ncnc(N)c34)[nH]c12 [OSI-027] (partner 0.5 µM)
- relative viability (LCLC-97TM1; first compound 0.01 µM): 0.582
- relative viability (LCLC-97TM1; first compound 0.03162 µM): 0.577
- relative viability (LCLC-97TM1; first compound 0.1 µM): 0.511
- relative viability (LCLC-97TM1; first compound 0.3162 µM): 0.617
- relative viability (LCLC-97TM1; first compound 1 µM): 0.44
- relative viability (NCI-H596; first compound 0.01 µM): 0.702
- relative viability (NCI-H596; first compound 0.03162 µM): 0.711
- relative viability (NCI-H596; first compound 0.1 µM): 0.849
- relative viability (NCI-H596; first compound 0.3162 µM): 0.673
- relative viability (NCI-H596; first compound 1 µM): 0.686
- relative viability (LXF-289; first compound 0.01 µM): 0.61
- relative viability (LXF-289; first compound 0.03162 µM): 0.835
- relative viability (LXF-289; first compound 0.1 µM): 0.886
- relative viability (LXF-289; first compound 0.3162 µM): 0.864
- relative viability (LXF-289; first compound 1 µM): 0.971
- relative viability (UMC-11; first compound 0.01 µM): 0.484
- relative viability (UMC-11; first compound 0.03162 µM): 0.442
- relative viability (UMC-11; first compound 0.1 µM): 0.43
- relative viability (UMC-11; first compound 0.3162 µM): 0.33
- relative viability (UMC-11; first compound 1 µM): 0.241
- relative viability (HCC-15; first compound 0.01 µM): 0.664
- relative viability (HCC-15; first compound 0.03162 µM): 0.702
- relative viability (HCC-15; first compound 0.1 µM): 0.72
- relative viability (HCC-15; first compound 0.3162 µM): 0.766
- relative viability (HCC-15; first compound 1 µM): 0.64
- relative viability (NCI-H2342; first compound 0.01 µM): 0.612
- relative viability (NCI-H2342; first compound 0.03162 µM): 0.714
- relative viability (NCI-H2342; first compound 0.1 µM): 0.611
- relative viability (NCI-H2342; first compound 0.3162 µM): 0.586
- relative viability (NCI-H2342; first compound 1 µM): 0.588
- relative viability (NCI-H322M; first compound 0.01 µM): 0.555
- relative viability (NCI-H322M; first compound 0.03162 µM): 0.581
- relative viability (NCI-H322M; first compound 0.1 µM): 0.562
- relative viability (NCI-H322M; first compound 0.3162 µM): 0.254
- relative viability (NCI-H322M; first compound 1 µM): 0.255
- relative viability (LU99A; first compound 0.01 µM): 0.323
- relative viability (LU99A; first compound 0.03162 µM): 0.365
- relative viability (LU99A; first compound 0.1 µM): 0.352
- relative viability (LU99A; first compound 0.3162 µM): 0.326
- relative viability (LU99A; first compound 1 µM): 0.217
- relative viability (NCI-H650; first compound 0.01 µM): 0.549
- relative viability (NCI-H650; first compound 0.03162 µM): 0.542
- relative viability (NCI-H650; first compound 0.1 µM): 0.537
- relative viability (NCI-H650; first compound 0.3162 µM): 0.509
- relative viability (NCI-H650; first compound 1 µM): 0.614
- relative viability (NCI-H1651; first compound 0.01 µM): 0.76
- relative viability (NCI-H1651; first compound 0.03162 µM): 0.637
- relative viability (NCI-H1651; first compound 0.1 µM): 0.653
- relative viability (NCI-H1651; first compound 0.3162 µM): 0.637
- relative viability (NCI-H1651; first compound 1 µM): 0.193
- relative viability (HCC-78; first compound 0.01 µM): 0.43
- relative viability (HCC-78; first compound 0.03162 µM): 0.452
- relative viability (HCC-78; first compound 0.1 µM): 0.453
- relative viability (HCC-78; first compound 0.3162 µM): 0.357
- relative viability (HCC-78; first compound 1 µM): 0.346
- relative viability (NCI-H1944; first compound 0.01 µM): 0.396
- relative viability (NCI-H1944; first compound 0.03162 µM): 0.467
- relative viability (NCI-H1944; first compound 0.1 µM): 0.53
- relative viability (NCI-H1944; first compound 0.3162 µM): 0.525
- relative viability (NCI-H1944; first compound 1 µM): 0.299
- relative viability (LC-2-ad; first compound 0.01 µM): 0.911
- relative viability (LC-2-ad; first compound 0.03162 µM): 1
- relative viability (LC-2-ad; first compound 0.1 µM): 0.816
- relative viability (LC-2-ad; first compound 0.3162 µM): 0.8
- relative viability (LC-2-ad; first compound 1 µM): 0.543
- relative viability (ChaGo-K-1; first compound 0.01 µM): 0.622
- relative viability (ChaGo-K-1; first compound 0.03162 µM): 0.631
- relative viability (ChaGo-K-1; first compound 0.1 µM): 0.56
- relative viability (ChaGo-K-1; first compound 0.3162 µM): 0.643
- relative viability (ChaGo-K-1; first compound 1 µM): 0.554
- relative viability (SK-MES-1; first compound 0.01 µM): 0.672
- relative viability (SK-MES-1; first compound 0.03162 µM): 0.571
- relative viability (SK-MES-1; first compound 0.1 µM): 0.52
- relative viability (SK-MES-1; first compound 0.3162 µM): 0.173
- relative viability (SK-MES-1; first compound 1 µM): 0.17
- relative viability (PC-3 [JPC-3]; first compound 0.01 µM): 0.714
- relative viability (PC-3 [JPC-3]; first compound 0.03162 µM): 0.832
- relative viability (PC-3 [JPC-3]; first compound 0.1 µM): 0.858
- relative viability (PC-3 [JPC-3]; first compound 0.3162 µM): 0.751
- relative viability (PC-3 [JPC-3]; first compound 1 µM): 0.684
- relative viability (NCI-H1666; first compound 0.01 µM): 0.981
- relative viability (NCI-H1666; first compound 0.03162 µM): 0.921
- relative viability (NCI-H1666; first compound 0.1 µM): 1.03
- relative viability (NCI-H1666; first compound 0.3162 µM): 0.858
- relative viability (NCI-H1666; first compound 1 µM): 0.771
- relative viability (LK-2; first compound 0.01 µM): 0.192
- relative viability (LK-2; first compound 0.03162 µM): 0.228
- relative viability (LK-2; first compound 0.1 µM): 0.213
- relative viability (LK-2; first compound 0.3162 µM): 0.186
- relative viability (LK-2; first compound 1 µM): 0.165
- relative viability (NCI-H838; first compound 0.01 µM): 0.429
- relative viability (NCI-H838; first compound 0.03162 µM): 0.374
- relative viability (NCI-H838; first compound 0.1 µM): 0.415
- relative viability (NCI-H838; first compound 0.3162 µM): 0.413
- relative viability (NCI-H838; first compound 1 µM): 0.297
- relative viability (NCI-H358; first compound 0.01 µM): 0.956
- relative viability (NCI-H358; first compound 0.03162 µM): 0.838
- relative viability (NCI-H358; first compound 0.1 µM): 0.839
- relative viability (NCI-H358; first compound 0.3162 µM): 0.75
- relative viability (NCI-H358; first compound 1 µM): 0.461
- relative viability (NCI-H2087; first compound 0.01 µM): 0.474
- relative viability (NCI-H2087; first compound 0.03162 µM): 0.653
- relative viability (NCI-H2087; first compound 0.1 µM): 0.681
- relative viability (NCI-H2087; first compound 0.3162 µM): 0.883
- relative viability (NCI-H2087; first compound 1 µM): 0.779
- relative viability (NCI-H661; first compound 0.01 µM): 0.731
- relative viability (NCI-H661; first compound 0.03162 µM): 0.717
- relative viability (NCI-H661; first compound 0.1 µM): 0.616
- relative viability (NCI-H661; first compound 0.3162 µM): 0.559
- relative viability (NCI-H661; first compound 1 µM): 0.319
- relative viability (BEN; first compound 0.01 µM): 0.284
- relative viability (BEN; first compound 0.03162 µM): 0.297
- relative viability (BEN; first compound 0.1 µM): 0.305
- relative viability (BEN; first compound 0.3162 µM): 0.287
- relative viability (BEN; first compound 1 µM): 0.246
